Read-outs that look alike come from different tables or passages of the source.
Tested on: Staphylococcus aureus strain FRI-1169
Experiment: microbe, parasite or virus in culture
Format: cell-based
Conditions: for inhibition at 0.1 % / inhibition at 0.5 % / inhibition at 1 % / inhibition at 10 %: Staphylococcus aureus; for inhibition at 0.1 %: FRI1169, read-out: Reduction in TSST-1 Formation, Example 11: test tampon comprising 0.1% fatty acid ester; for inhibition at 0.5 %: FRI1169, read-out: Reduction in TSST-1 Formation, Example 11: test tampon comprising 0.5% fatty acid ester; for inhibition at 10 %: FRI1169, read-out: Reduction in TSST-1 Formation, Example 11: test tampon comprising 10% fatty acid ester
[1] = Example 11: test tampon comprising 0.1% fatty acid ester
[2] = Example 11: test tampon comprising 0.5% fatty acid ester
[3] = Example 11: test tampon comprising 1.0% fatty acid ester
[4] = Example 11: test tampon comprising 10% fatty acid ester
[5] = FRI1169, read-out: Reduction in TSST-1 Formation, Example 11: test tampon comprising 1.0% fatty acid ester
[6] = Example 8: test tampon comprising 1% by weight of the ester, 24 hours at 37°C
[7] = Example 8: test tampon comprising 1% by weight of the ester, 24 hours at 37°C, ELISA
[8] = FRI1169, read-out: REDUCTION IN TSST-1 FORMATION, Example 8: test tampon comprising 1% by weight of the ester, vs untreated control tampon

Row | Compound | Log of Final Concn. of S. aureus [1] | Total Amount TSST-1 Produced [1] | Log of Final Concn. of S. aureus [2] | Total Amount TSST-1 Produced [2] | Log of Final Concn. of S. aureus [3] | Total Amount TSST-1 Produced [3] | Log of Final Concn. of S. aureus [4] | Total Amount TSST-1 Produced [4] | inhibition at 0.1 % [%] | inhibition at 0.5 % [%] | inhibition at 1 % [5] [%] | inhibition at 10 % [%] | FINAL CONCENTRATION OF S. AUREUS CELLS, log to the base 10 [6] | Total Amount TSST-1 Produced [7] | inhibition at 1 % [8] [%]
1 | CCCCCCCCCCCC(=O)OCC(C)O (stereo not drawn) [Tampon 1, 2-Hydroxy-1-propyl laurate] | 9.1 /ml | 7.93 »g | 7.64 /ml | 1.25 »g | 8.79 /ml | 0.09 »g | 8.37 /ml | 0.05 »g | ~7 | 85 | ~99 | 99 | – | – | –
2 | CCCCCCCCCCCC(=O)OCCOCCO [Tampon 2, Diethylene glycol monolaurate] | 8.45 /ml | 0.12 »g | 7.40 /ml | 0.01 »g | 6.13 /ml | 0.01 »g | 7.42 /ml | 0.11 »g | 99 | 99 | ~99 | 99 | – | – | –
3 | CCCCCCCCCCCC(=O)OCC(O)CO (stereo not drawn) [Tampon No. 2, Glyceryl monolaurate] | – | – | – | – | – | – | – | – | – | – | – | – | 6.81 /ml | 0.14 »g | 99.1
4 | CCCCCCCCCCCCCC(=O)OCC(O)CO (stereo not drawn) [Tampon No. 3, Glyceryl monomyristate] | – | – | – | – | – | – | – | – | – | – | – | – | 8.70 /ml | 0.58 »g | 96.6
5 | CCCCCCCCCCCCCCCC(=O)OCC(O)CO (stereo not drawn) [Tampon No. 4, Glyceryl monopalmitate] | – | – | – | – | – | – | – | – | – | – | – | – | 9.15 /ml | 1.75 »g | 89.7
6 | CCCCCCCCCCCCCCCCCC(=O)OCC(O)CO (stereo not drawn) [Tampon No. 5, Glyceryl monostearate] | – | – | – | – | – | – | – | – | – | – | – | – | 8.78 /ml | 6.43 »g | 60
7 | CCCCCCCC/C=C\CCCCCCCC(=O)OCC(O)CO (stereo not drawn) [Tampon No. 6, Glyceryl monooleate] | – | – | – | – | – | – | – | – | – | – | – | – | 8.83 /ml | 1.01 »g | 94.1
